From patent US11858879B2, “PARG inhibitors and method of use thereof” (City of Hope, priority 2017, dated 2024)

Target: T1, PARG (Homo sapiens, UniProt Q86W56)
T1 construct: Recombinant full length PARG protein is generated from Sf9 insect cells; made in house; host or cells: Sf9 insect cells
Experiment: PAR digestion assay (dot blotting with anti-PAR antibody)
Type: biochemical
Conditions: PARG incubated with PAR for 20 min at room temperature with or without inhibitors, dot blot with anti-PAR antibody
Description: Development of potent and cell-permeant PARG inhibitors via multi-step virtual screening and hierarchical selection. Forty candidates from National Cancer Institute (NCI) were selected to examine the efficacy of PARG inhibition by dot blot assay. PARG was incubated with PAR for 20 min at room temperature with or without inhibitors. PAR-digestion results were analyzed using dot blotting with anti-PAR antibody. […] PC and NC mean positive control (PAR only) and negative control (no inhibitor), respectively. IC50 value of compound 34 was measured by dot blotting with anti-PAR antibody in a dose course of compound 34.
PAR digestion assay: Recombinant PARG protein were incubated with PAR (10 μM, calculated as the ADP-ribose unit) and DMSO (Negative control, NC) or small molecules for 20 minutes at room temperature. Positive control (PC) only contains PAR in PBS. Samples were spotted onto a nitrocellulose membrane. The membrane was blocked with TBST buffer (0.15 M NaCl, 0.01 M Tris-HCl at pH 7.4, 0.1% Tween 20) supplemented with 5% milk and extensively washed with TBST. The membrane was examined by anti-PAR antibody.
Recombinant full length PARG protein is generated from Sf9 insect cells. Recombinant PAR is purified from a biochemical assay using PARP1. PARG is incubated with PAR in the presence of DMSO (Negative control, NC) or small chemical compounds for 20 minutes at room temperature. […]

T1 sequence (Q86W56 whole entry): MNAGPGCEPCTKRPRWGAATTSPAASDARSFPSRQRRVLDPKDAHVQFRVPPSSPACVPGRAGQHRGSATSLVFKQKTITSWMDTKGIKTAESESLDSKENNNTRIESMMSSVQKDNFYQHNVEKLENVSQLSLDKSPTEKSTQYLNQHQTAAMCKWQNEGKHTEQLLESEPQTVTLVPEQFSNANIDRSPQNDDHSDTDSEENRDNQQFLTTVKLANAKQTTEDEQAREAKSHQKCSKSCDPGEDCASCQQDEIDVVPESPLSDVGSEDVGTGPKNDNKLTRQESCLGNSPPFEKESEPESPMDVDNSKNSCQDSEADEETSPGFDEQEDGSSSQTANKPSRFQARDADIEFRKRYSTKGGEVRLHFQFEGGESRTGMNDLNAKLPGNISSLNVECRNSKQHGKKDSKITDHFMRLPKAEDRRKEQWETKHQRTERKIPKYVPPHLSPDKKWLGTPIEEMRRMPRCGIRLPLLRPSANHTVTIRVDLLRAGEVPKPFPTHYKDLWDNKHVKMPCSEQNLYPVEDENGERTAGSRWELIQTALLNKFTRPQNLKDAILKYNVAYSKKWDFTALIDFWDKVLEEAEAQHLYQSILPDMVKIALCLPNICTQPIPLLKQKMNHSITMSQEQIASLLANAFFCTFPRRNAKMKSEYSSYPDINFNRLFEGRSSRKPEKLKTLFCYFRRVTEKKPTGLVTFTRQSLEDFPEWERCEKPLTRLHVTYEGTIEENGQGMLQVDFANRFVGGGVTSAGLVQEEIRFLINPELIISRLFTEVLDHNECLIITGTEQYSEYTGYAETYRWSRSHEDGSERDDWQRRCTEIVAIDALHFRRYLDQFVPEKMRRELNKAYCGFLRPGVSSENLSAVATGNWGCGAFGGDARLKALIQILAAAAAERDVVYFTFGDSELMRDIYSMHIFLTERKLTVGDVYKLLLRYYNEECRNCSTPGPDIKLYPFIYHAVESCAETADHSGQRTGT

inhibitory activity for PARG: inhibitory activity
inhibitory activity for PARG (listed as #34): good inhibitory activity
Compound: Cc1ccc(S/N=C/c2c(O)ccc3ccccc23)cc1 [Compound 34]
